Earlier results, collected in US20080247966A1, “Compositions and Methods to Counteract Oral Malodour” (GIVAUDAN SA, priority 2005, published 2008).

Test system: microorganisms such as yeasts
Details: oral care compositions with C1-C4 lower alcohols, WO 99/51093

**Q.** For CCCCCCCCO [octanol, octan-1-ol], which “effect on microorganisms such as yeasts” value is on record?
**A.** The value was “no effect”.
